Laboratory results taken from patent US9328138B2 (priority 2011, dated 2016).

Tests used:
[1] = target: T1, HCV genotype 1b (BK) NS3 modified enzyme with a R155K mutation (Hepatitis C virus genotype 1b, UniProt P26663, R1181K); assay: HCV NS3 protease time-resolved fluorescence (TRF) assay, genotype 1b R155K; assay type: biochemical; details: Ki 1b R155K, genotype 1b (BK) NS3 R155K; single value
T1 construct: HCV genotype 1b (BK) NS3 modified enzyme
Method in brief: (§1)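 Time-resolved fluorescence, ex 340/em 615 nm, 400 μs delay; IC50 by four-parameter fit. Enzyme preincubated with compound 10 min, then TRF substrate 25 nM final added and reaction run 6 h at RT. Buffer HEPES pH 7.5 with NaCl, glycerol, Triton X-100, DTT, PEG 8000.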

[2] = target: HCV NS3 protease genotype 3a (3A-1) (Hepatitis C virus genotype 3a, UniProt Q81258); assay: HCV NS3 protease time-resolved fluorescence (TRF) assay, genotype 3a; assay type: biochemical; details: Ki 3a
Method in brief: as §1

Row | SMILES | Ki [1] [nM] | Ki [2] [nM]
1 | C=C[C@@H]1C[C@]1(NC(=O)[C@@H]1C[C@@H]2CN1C(=O)[C@H](C(C)(C)C)NC(=O)O[C@@H]1C[C@H]1CCCCCc1c(nc3ccccc3c1OCCCN(C)CC1CCC(=O)N1)O2)C(=O)NS(=O)(=O)C1(C)CC1 (stereo partly drawn) [Example 195, (1aR,5S,8S,10R,22aR)-5-tert-butyl-N-[(1R,2S)-2-ethenyl-1-{[(1-methylcyclopropyl)sulfonyl]carbamoyl}cyclopropyl]-17-(3-{methyl[(5-oxopyrrolidin-2-yl)methyl]amino}propoxy)-3,6-dioxo-1,1a,3,4,5,6,9,10,18, 19,20,21,22,22a-tetradecahydro-8H-7,10-methanocyclopropa[18,19][1,10,3,6] dioxadiazacyclononadecino[11,12-b] quinoline-8-carboxamide] | 0.049 | 0.66
2 | C=C[C@@H]1C[C@]1(NC(=O)[C@@H]1C[C@@H]2CN1C(=O)[C@H](C(C)(C)C)NC(=O)O[C@@H]1C[C@H]1CCCCCc1c(nc3ccccc3c1OCCCN1CC3CCC1C3)O2)C(=O)NS(=O)(=O)C1(C)CC1 [Example 196, (1aR,5S,8S,10R,22aR)-17-[3-(2-azabicyclo[2.2.1]hept-2-yl)propxy]-5-tert-butyl-N-[(1R,2S)-2-ethenyl-1-{[(1-methylcyclopropyl)sulfonyl]carbamoyl}cyclopropyl]-3,6-dioxo-1,1a, 3,4,5,7,9,10,18,19,20,21,22,22a-tetradecahydro-8H-7,10-methanocyclopropa[18,19][1,10,3,6] dioxadiazacyclononadecino[11,12-b] quinoline-8-carboxamide] | 0.1 | 0.85
3 | C=C[C@@H]1C[C@]1(NC(=O)[C@@H]1C[C@@H]2CN1C(=O)[C@H](C(C)(C)C)NC(=O)O[C@@H]1C[C@H]1CCCCCc1c(nc3ccccc3c1OCCCNCCN1CCCC1=O)O2)C(=O)NS(=O)(=O)C1(C)CC1 [Example 197, (1aR,5S,8S,10R,22aR)-5-tert-butyl-N-[(1R,2S)-2-ethenyl-1-{[(1-methylcyclopropyl)sulfonyl]carbamoyl}cyclopropyl]-3,6-dioxo-17-(3-{[2-(2-oxopyrrolidin-1-yl)ethyl]amino}propoxy)-1,1a,3,4,5,7,9,10, 18,19,20,21,22,22a-tetra decahydro-8H-7,10-methanocyclopropa[18,19][1,10,3,6] dioxdiazacyclononadecino[11,12-b] quinoline-8-carboxamide] | 0.027 | 0.31
4 | C=C[C@@H]1C[C@]1(NC(=O)[C@@H]1C[C@@H]2CN1C(=O)[C@H](C(C)(C)C)NC(=O)O[C@@H]1C[C@H]1CCCCCc1c(nc3ccccc3c1OCCCNCCCCc1ccccc1)O2)C(=O)NS(=O)(=O)C1(C)CC1 [Example 198, (1aR,5S,8S,10R,22aR)-5-tert-butyl-N-[(1R,2S)-2-ethenyl-1-{[(1-methylcyclopropyl)sulfonyl]carbamoyl}cylcopropoyl]-3,6-dioxo-17-{3-[(4-phenylbutyl)amino]propoxy}-1,1a,3,4,5,6,9,10,18,19,20,21,22,22a-tetra decahydro-8H-7,10-methanocyclopropa[18,19][1,10,3,6] dioxadiazacyclononadecino[11,12-b] quinoline-8-carboxamide] | 0.05 | 0.77
5 | C=C[C@@H]1C[C@]1(NC(=O)[C@@H]1C[C@@H]2CN1C(=O)[C@H](C(C)(C)C)NC(=O)O[C@@H]1C[C@H]1CCCCCc1c(nc3ccccc3c1OCCCN(C)Cc1n[nH]c(=O)[nH]1)O2)C(=O)NS(=O)(=O)C1(C)CC1 [Example 199, (1aR,5S,8S,10R,22aR)-5-tert-butyl-N-[(1R,2S)-2-ethenyl-1-{[(1-methylcyclopropyl)sulfonyl]carbamoyl}cyclopropyl]-17-(3-{methyl[(5-oxo-4,5-dihydro-1H-1,2,4-triazol-3-yl)methyl]amino}propoxy)-3,6-dioxo-1,1a,3,4,5,6,9,10,18,19,20,21, 22,22a-tetradecahydro-8H-7,10-methanocyclopropa[18,19][1,10,3,6] dioxadiazacyclononadecino[11,12-b] quinoline-8-carboxamide] | 0.057 | 0.74
6 | C=C[C@@H]1C[C@]1(NC(=O)[C@@H]1C[C@@H]2CN1C(=O)[C@H](C(C)(C)C)NC(=O)O[C@@H]1C[C@H]1CCCCCc1c(nc3ccccc3c1OCCCN(C)Cc1ncc[nH]1)O2)C(=O)NS(=O)(=O)C1(C)CC1 [Example 200, (1aR,5S,8S,10R,22aR)-5-tert-butyl-N-[(1R,2S)-2-ethenyl-1-{[(1-methylcyclopropyl)sulfonyl]carbamoyl}cylcopropyl]-17-{3-[(1H-imidazol-2-ylmethyl)(methyl)amino]propoxy}-3,6-dioxo-1,1a,3,4,5,6,9,10,18, 19,20,21,22,22a-tetradecahydro-8H-7,10-methanocyclopropa[18,19][1,10,3,6] dioxadiazacyclononadecino[11,12-b] quinoline-8-carboxamide] | 0.074 | 0.96
7 | C=C[C@@H]1C[C@]1(NC(=O)[C@@H]1C[C@@H]2CN1C(=O)[C@H](C(C)(C)C)NC(=O)O[C@@H]1C[C@H]1CCCCCc1c(nc3ccccc3c1OCCCN(C)Cc1ncc(C)[nH]1)O2)C(=O)NS(=O)(=O)C1(C)CC1 [Example 201, (1aR,5S,8S,10R,22aR)-5-tert-butyl-N-[(1R,2S)-2-ethenyl-1-{[(1-methylcyclopropyl)sulfonyl]carbamoyl}cyclopropyl]-17-(3-{methyl[(5-methyl1H-imidazol-2-yl)methyl]amino}proopoxy)-3,6-dioxo-1,1a,3,4,5,6,9,10,18,19,20,21,22,22a-tetradecahydro-8H-7,10-methanocyclopropa[18,19][1,10,3,6] dioxadiazacyclononadecino[11,12-b] quinoline-8-carboxamide] | 0.079 | 1.3
8 | C=C[C@@H]1C[C@]1(NC(=O)[C@@H]1C[C@@H]2CN1C(=O)[C@H](C(C)(C)C)NC(=O)O[C@@H]1C[C@H]1CCCCCc1c(nc3ccccc3c1OCCCN(C)Cc1ccn[nH]1)O2)C(=O)NS(=O)(=O)C1(C)CC1 [Example 202, (1aR,5S,8S,10R,22aR)-5-tert-butyl-N-[(1R,2S)-2-ethenyl-1-{[(1-methylcyclopropyl)sulfonyl]carbamoyl}cyclopropyl]-17-{3-[methyl(1H-pyrazol-5-ylmethyl)amino]propoxy}-3,6-dioxo-1,1a,3,4,5,6,9,10,18, 19,20,21,22,22a-tetradecahydro-8H-7,10-methanocyclopropa[18,19][1,10,3,6] dioxadiazacyclononadecino[11,12-b] quinoline-8-carboxamide] | 0.05 | 0.95
9 | C=C[C@@H]1C[C@]1(NC(=O)[C@@H]1C[C@@H]2CN1C(=O)[C@H](C(C)(C)C)NC(=O)O[C@@H]1C[C@H]1CCCCCc1c(nc3ccccc3c1OCCCN1CCCCC1c1nc3cc(F)ccc3[nH]1)O2)C(=O)NS(=O)(=O)C1(C)CC1 (stereo partly drawn) [Example 203, (1aR,5S,8S,10R,22aR)-5-tert-butyl-N-[(1R,2S)-2-ethenyl-1-{[(1-methylcyclopropyl)sulfonyl]carbamoyl}cyclopropyl]-17-{3-[2-(5-fluoro-1H-benzimidazol-2-yl)piperidin-1-yl]propoxy}-3,6-dioxo-1,1a,3,4,5,6,9,10,18,19,20, 21,22,22a-tetradecahydro-8H-7,10-methanocyclopropa[18,19][1,10,3,6] dioxadiazacyclononadecino[11,12-b] quinoline-8-carboxamide] | 0.13 | 4.9
